For experiment [1], the target named is T1, Endoribonuclease toxin MazF (Escherichia coli K-12, UniProt P0AE70).
T1 sequence (P0AE70 whole entry): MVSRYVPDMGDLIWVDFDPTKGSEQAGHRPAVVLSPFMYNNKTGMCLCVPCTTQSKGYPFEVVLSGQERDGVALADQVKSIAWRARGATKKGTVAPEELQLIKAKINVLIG
As to the kind of experiment: activation of MazEF endoribonuclease cleavage – biochemical, fluorescence, single-stranded RNA substrate, uHTS hits, dose response (AID 588481). The format is functional.

Experiment [2] concerns the target T1, Endoribonuclease toxin MazF. Briefly: substrate-only fluorescence increase artefacts – biochemical, single-stranded RNase substrate, counter-screen for MazEF activator project, dose response (AID 588502). The format is functional. Background: The purpose of a counterscreen is to sort out artefacts and off-target activity.
Experiment [3] addresses T2, Corticotropin-releasing factor receptor 2/Corticotropin-releasing factor-binding protein (Homo sapiens, UniProt P24387+Q13324).
T2 sequence (Q13324 whole entry): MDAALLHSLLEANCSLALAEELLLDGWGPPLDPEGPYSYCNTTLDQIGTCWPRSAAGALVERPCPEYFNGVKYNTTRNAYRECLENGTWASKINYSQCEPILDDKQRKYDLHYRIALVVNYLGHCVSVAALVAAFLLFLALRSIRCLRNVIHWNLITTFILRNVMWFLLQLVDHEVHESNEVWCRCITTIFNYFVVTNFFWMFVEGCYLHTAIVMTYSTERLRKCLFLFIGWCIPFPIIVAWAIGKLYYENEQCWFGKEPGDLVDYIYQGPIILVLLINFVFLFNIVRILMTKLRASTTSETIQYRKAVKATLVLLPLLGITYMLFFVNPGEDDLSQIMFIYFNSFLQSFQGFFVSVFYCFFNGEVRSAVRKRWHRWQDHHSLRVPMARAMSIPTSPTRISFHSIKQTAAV
T2 sequence (P24387 whole entry): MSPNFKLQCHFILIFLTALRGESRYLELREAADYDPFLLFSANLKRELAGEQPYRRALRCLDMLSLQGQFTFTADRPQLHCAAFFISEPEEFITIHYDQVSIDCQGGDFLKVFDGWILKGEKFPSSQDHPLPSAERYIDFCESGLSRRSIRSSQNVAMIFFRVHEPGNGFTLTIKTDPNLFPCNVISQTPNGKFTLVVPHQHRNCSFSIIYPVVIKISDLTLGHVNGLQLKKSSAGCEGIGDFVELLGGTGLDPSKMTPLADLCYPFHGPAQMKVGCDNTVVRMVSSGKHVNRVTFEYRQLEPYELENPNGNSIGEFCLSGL
As to the kind of experiment: activators of CRF receptor 2 with binding protein – uHTS hits, confirmation (AID 602473). Type of experiment: functional. As to conditions: read-out: EC50_Mean.

The target of experiment [4] is Induced myeloid leukemia cell differentiation protein Mcl-1 (Homo sapiens, UniProt Q07820). The format is functional.
Chain of Induced myeloid leukemia cell differentiation protein Mcl-1 (Q07820 whole entry): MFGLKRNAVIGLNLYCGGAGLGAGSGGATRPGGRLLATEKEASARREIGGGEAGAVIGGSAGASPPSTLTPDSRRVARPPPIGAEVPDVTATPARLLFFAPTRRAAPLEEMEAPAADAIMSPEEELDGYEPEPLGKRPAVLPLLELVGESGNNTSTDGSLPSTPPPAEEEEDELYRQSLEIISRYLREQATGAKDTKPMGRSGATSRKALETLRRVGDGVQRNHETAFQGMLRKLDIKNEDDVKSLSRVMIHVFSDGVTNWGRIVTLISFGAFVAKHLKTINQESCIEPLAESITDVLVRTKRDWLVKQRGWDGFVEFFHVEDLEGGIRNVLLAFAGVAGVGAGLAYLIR
The target in experiment [5] is T3, Hexokinase HKDC1 (Homo sapiens, UniProt Q2TB90).
T3 sequence (Q2TB90 whole entry): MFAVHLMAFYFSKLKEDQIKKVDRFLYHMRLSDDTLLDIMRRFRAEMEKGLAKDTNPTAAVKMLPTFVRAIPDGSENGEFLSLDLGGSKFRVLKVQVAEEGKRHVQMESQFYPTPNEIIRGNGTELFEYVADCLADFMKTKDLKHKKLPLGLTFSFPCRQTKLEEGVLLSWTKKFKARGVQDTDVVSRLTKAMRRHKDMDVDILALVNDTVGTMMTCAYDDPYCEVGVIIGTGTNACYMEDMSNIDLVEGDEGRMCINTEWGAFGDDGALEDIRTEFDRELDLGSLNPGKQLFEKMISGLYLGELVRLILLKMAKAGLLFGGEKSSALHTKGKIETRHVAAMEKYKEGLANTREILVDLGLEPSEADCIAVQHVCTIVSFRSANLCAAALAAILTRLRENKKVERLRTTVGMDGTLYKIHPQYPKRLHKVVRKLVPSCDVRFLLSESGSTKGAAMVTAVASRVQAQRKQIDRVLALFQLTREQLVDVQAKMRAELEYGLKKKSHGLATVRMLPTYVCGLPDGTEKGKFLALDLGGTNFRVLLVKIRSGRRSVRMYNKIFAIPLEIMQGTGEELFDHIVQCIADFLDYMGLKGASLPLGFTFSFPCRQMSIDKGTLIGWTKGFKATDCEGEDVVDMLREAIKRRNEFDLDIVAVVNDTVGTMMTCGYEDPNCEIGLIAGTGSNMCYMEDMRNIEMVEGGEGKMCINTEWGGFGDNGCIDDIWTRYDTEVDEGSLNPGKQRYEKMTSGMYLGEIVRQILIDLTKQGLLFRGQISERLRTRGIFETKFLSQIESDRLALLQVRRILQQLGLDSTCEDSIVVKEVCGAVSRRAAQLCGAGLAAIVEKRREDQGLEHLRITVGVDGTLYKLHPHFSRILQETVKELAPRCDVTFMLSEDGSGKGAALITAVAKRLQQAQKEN
As to the kind of experiment: inhibition of HKDC1 glucose phosphorylation – biochemical, W721R variant, dose response (AID 504729). The format is functional.

Experiment [6] has as its system Vero. As to the kind of experiment: viability of Vero cells under compound – cytotoxicity control for flavivirus capping enzyme inhibitors (AID 588742). As to conditions: Chlorocebus sabaeus. Type of experiment: functional.
Experiment [7] concerns the target Genome polyprotein (dengue virus type 2, UniProt P29990). As to the kind of experiment: flavivirus cap methylation enzyme inhibition – biochemical, confirmation dose response, primary screen (AID 588689). The format is functional.
Experiment [8] is described as follows: viability loss in THP-1 monocytes – THP-1 cells, cytotoxicity control for Vif-APOBEC3G degradation inhibitor project, dose response (AID 1117359). The format is functional. As to conditions: THP-1.
Experiment [9] concerns the target T4, Rac GTPase-activating protein 1 (Homo sapiens, UniProt Q9H0H5).
T4 sequence (Q9H0H5 whole entry): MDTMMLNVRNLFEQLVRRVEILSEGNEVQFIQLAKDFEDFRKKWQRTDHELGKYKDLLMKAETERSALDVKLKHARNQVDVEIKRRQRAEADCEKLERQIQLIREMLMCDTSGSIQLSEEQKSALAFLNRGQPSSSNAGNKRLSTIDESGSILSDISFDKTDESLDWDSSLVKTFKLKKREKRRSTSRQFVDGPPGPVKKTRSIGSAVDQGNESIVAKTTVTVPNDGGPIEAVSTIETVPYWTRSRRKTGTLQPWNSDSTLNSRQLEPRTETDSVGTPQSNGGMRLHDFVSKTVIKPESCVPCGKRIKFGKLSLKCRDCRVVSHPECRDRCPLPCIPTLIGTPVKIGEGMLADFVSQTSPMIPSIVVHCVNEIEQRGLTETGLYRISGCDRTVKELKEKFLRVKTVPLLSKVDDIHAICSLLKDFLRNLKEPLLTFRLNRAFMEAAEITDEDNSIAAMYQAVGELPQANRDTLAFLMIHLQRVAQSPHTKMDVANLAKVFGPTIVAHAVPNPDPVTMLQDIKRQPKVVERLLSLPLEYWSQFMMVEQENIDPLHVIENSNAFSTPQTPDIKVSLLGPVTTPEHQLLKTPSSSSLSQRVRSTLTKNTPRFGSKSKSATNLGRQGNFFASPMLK
As to the kind of experiment: blockers of MgcRacGAP-driven Rac1 GTP hydrolysis – biochemical, ADP Hunter fluorescence, primary and confirmatory, confirmation (AID 624330). The format is functional.

For experiment [10], the target named is T5, RNA-binding protein pos-1 (Caenorhabditis elegans, UniProt G5EF15).
T5 sequence (G5EF15 whole entry): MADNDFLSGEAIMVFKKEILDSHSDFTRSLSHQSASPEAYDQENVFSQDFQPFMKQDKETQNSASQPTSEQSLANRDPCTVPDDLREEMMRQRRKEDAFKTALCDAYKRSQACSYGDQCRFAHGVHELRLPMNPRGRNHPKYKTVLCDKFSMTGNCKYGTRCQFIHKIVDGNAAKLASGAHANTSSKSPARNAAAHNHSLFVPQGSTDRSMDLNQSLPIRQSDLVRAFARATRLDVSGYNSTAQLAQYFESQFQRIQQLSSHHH
As to the kind of experiment: disruptors of C. elegans POS-1 RNA interaction – biochemical, fluorescence polarization, dose response (AID 1964).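 Also: purified POS-1 fused to maltose binding protein made in E. coli; potency of compounds blocking POS-1 binding to fluorescent RNA.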 Background: In fluorescence polarisation assays a small probe gives low polarisation when free and higher when bound to something large.

For experiment [11], the target named is T6, Zinc finger protein mex-5 (Caenorhabditis elegans, UniProt Q9XUB2).
T6 sequence (Q9XUB2 whole entry): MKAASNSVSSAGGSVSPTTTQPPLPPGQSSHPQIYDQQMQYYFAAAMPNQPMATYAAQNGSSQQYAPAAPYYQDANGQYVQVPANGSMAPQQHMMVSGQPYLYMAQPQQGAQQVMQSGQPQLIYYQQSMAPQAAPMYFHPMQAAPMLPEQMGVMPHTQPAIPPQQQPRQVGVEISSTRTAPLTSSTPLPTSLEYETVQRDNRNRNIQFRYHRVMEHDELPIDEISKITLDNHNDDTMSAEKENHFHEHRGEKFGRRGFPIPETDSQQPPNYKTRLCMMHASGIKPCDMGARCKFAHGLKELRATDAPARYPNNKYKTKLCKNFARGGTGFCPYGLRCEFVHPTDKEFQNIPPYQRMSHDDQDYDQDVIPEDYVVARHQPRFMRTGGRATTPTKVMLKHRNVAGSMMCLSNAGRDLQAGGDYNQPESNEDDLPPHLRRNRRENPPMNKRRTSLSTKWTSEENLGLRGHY
As to the kind of experiment: potency of MEX-5 RNA-binding blockers – biochemical, C. elegans, fluorescence polarization, dose response (AID 1960).

Experiment [12] deals with HeLa. As to the kind of experiment: viability loss in HeLa cells – cell-based, 24 h, cherry-picked samples, cytotoxicity control, dose response (AID 504726).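 Also: potency for cytotoxicity as loss of luminescence signal.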 As to conditions: Homo sapiens. The format is functional.

Active and inactive are the calls of the source.

By IC50 is commonly meant the point on the concentration scale where inhibition reaches its midpoint. By CC50 is commonly meant the concentration that lowers cell viability or growth by half. Broadly, the AC50 is the concentration at which the activity in the assay is half-maximal.

Chain of Genome polyprotein (P29990 2492-3391 limits assumed): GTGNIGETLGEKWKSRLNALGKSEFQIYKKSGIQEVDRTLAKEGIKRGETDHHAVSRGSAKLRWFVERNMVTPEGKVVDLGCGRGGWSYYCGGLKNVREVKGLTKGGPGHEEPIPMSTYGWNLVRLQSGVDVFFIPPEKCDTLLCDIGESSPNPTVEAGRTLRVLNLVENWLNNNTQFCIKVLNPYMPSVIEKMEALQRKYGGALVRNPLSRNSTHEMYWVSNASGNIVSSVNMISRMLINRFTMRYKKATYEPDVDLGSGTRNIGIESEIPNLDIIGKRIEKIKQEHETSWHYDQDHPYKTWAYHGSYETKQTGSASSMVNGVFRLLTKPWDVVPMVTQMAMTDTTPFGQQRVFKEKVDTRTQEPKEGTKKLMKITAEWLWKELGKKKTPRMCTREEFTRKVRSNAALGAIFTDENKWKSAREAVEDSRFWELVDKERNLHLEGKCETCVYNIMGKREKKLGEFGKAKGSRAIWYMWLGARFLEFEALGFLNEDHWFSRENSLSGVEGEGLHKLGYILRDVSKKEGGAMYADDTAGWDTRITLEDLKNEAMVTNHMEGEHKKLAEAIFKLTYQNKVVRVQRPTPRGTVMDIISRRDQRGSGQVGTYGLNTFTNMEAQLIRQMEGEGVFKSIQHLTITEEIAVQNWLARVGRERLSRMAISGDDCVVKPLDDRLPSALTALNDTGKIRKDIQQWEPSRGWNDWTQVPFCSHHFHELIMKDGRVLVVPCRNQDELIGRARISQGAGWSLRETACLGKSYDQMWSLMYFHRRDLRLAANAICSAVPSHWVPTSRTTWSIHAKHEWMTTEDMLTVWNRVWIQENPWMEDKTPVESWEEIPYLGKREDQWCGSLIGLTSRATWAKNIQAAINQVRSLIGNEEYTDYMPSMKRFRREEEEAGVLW

Consider `CSc1nc(-c2ccc(N(C)C)cc2)c(C#N)c(=O)n1C`, for which the EC50 in experiment [1] is > 99 µM (inactive); in experiment [2], > 99 µM (inactive); in experiment [3], 7.08 µM (active).
On to `COc1ccc2[nH]c3c4c(ccc3c2c1)C(=O)C=CC4=O`, for which the values for the IC50 in experiment [4], in [5] and in [7] were 0.919 µM (active), 19.1 µM (active) and > 100 µM (active), respectively. For the same compound, the CC50 in experiment [6] was 17.9 µM (active); in experiment [8], 3.94 µM (active).
Turning to `Cc1cc(O)ccc1/N=C/c1c(C(F)(F)F)n[nH]c1O`, in experiment [6], the CC50 was > 40 µM (active). Besides, in experiment [9], the IC50 is 30.2 µM (active).
For `Cc1ccc(N=Nc2c(O)[nH]c3ccc(F)cc23)cc1`, the EC50 in experiment [10] was > 300 µM (inconclusive); in experiment [11] it was > 300 µM (inconclusive); in [1], > 99 µM (inactive); in experiment [2] it was 29.9 µM (inactive). In addition, the half-maximal activity concentration (AC50) in [12] is 251 µM (active).
